Reference: patent US20220072083A1, “COMPOSITION FOR IMPROVING OR PREVENTING NONALCOHOLIC FATTY LIVER” (KOHJIN LIFE SCIENCES CO., LTD., priority 2015, published 2022)

Experiments:
[1] = tested on: Mice (C57/B6J, 8 weeks old male) fed with high-fat food
Excerpt: Mice (C57/B6J, 8 weeks old male) were divided into 4 groups (5 animals each), and the first group (DB) was freely fed with ordinary food (CertifiedDiet “MF” manufactured by Oriental Yeast Co., ltd.). The second group (HFD) was freely fed with high-fat food (High Fat Diet 32, manufactured by CLEA Japan, Inc.), […].
When the mouse was 20 weeks old, the body weight, the liver weight, the serum aspartate aminotransferase (AST), the alanine aminotransferase (ALT), the serum triglyceride (TG), the free fatty acid value (FFA) and the total cholesterol value (T-cho) were measured.

[2] = tested on: subjects who had NAFLD in 31 IU/L or more of ALT
[3] = HFD6 (6 mg/kg/day) and HFD60 (60 mg/kg/day) groups in comparison to the HFD group, 20 weeks old

SMILES: N[C@@H](CCC(=O)N[C@@H](CS)C(=O)NCC(=O)O)C(=O)O [glutathione]
- serum AST, ALT, TG, FFA, T-cho: comparison of HFD6 group and HFD60 group ([1]; 6 versus 60 mg/kg/day glutathione): decrease dependently on the concentration
- serum ALT [1, 3]: significant decrease
- serum AST [1, 3]: significant decrease
- serum FFA (free fatty acid value) [1, 3]: significant decrease
- serum T-cho (total cholesterol value) [1, 3]: significant decrease
- serum TG (triglyceride value) [1, 3]: significant decrease
- deposition of fat on the liver by high-fat food ([1]; concluded from liver weight and liver/body weight ratio): suppressed
- liver weight ([1]; high-fat food mice, glutathione 6 and 60 mg/kg/day in water, 20 weeks old): decreased dependently on the concentration
- body weight ([1]; high-fat food mice, glutathione 6 or 60 mg/kg/day in water): decrease of the body weight was recognized
- improvement of ALT after the administration in comparison to ALT before the administration (0 wk) ([2]; Case IDs 1 to 9 (group affected), at least one week after initiation of administration): ≥ 20%
- FibroScan (after treatment) CAP ([2]; after treatment, oral glutathione 300 mg per day, one subject (Case ID) per table row): 280 dBe
